Source: patent publication US4769389A, “Oxygenated-alkyl derivatives of glutamic and aspartic acids with antagonistic activity to bio-active polypeptides and a method for their preparation” (priority 1985, dated 1988)
≈ marks a conversion by molar mass, not a printed value. Like-named read-outs stand apart in the source and are kept apart here.

Key:
guinea-pig gallbladder = assay: Anti-CCK activity on guinea-pig gallbladders in vitro (contraction by CCK-8); details: for IC50: Cavia porcellus, CCK-8 10 ng/ml, in vitro
Experimental: ANTI-CCK ACTIVITY ON GUINEA-PIG GALLBLADDERS IN VITRO A longitudinal strip of guinea-pig gallbladder is placed in a bath for isolated organs in Krebs at a temperature of 32° C. and oxygenated continuously with an oxygen-CO2 mixture (95-[…]). The isometric contractions were detected by means of a force transducer and recorded. […] The results obtained are shown in Table 3 which gives the compounds tested and the IC50 values found which were calculated by the method of regression in a test of at least three experiments for each compound studied.

guinea pig gall bladders = assay: Anti-CCK-8 activity on guinea-pig gallbladders in situ (in vivo); details: Cavia porcellus, iv; CCK-8 10 ng/kg i.v.; compound i.v.; read-out: ID50, anti-CCK-8 activity in situ
Experimental: In order to confirm the evidence of the studies in vitro, several of the more interesting compounds were tested in vivo with the use of guinea-pig gallbladders in situ.
The method used was that described by Ljungberg (Svensk. Farm. Tidskr. 69, 351-354, 1964).
Guinea-pigs having a weight of about 400 g anaesthetised with urethane were used; the substances being tested were administered intravenously (i.v.) into the jugular vein.
The responses of the gallbladder to the substances being tested were detected by means of a force transducer and recorded by means of a microdynamometer. 10 ng/kg of CCK 8 were chosen as the optimum contracting dose. The antagonistic compounds tested were administered in increasing doses so as to enable the calculation of an ID50 value, that is the dose (in mg/kg i.v.) having a 50% inhibiting effect against contractions induced by 10 ng/kg i.v. of CCK-8.

digestive tract = assay: Antispastic activity, vegetable carbon test (speed of transit through stomach and intestine) in mice; assay type: in vivo; details: Mus musculus, ip, read-out: A[…] ED50 (dose which reduces the intestinal transit time of the carbon by 50%), intraperitoneally
From the text: The anti-spastic activity which the present compounds exert on the whole of the digestive tract is also considerable. Measured in mice with the vegetable carbon test (speed of transit through the stomach and intestine) this activity is illustrated in the following table: […]

in vivo = details: mouse, iv
colon of rabbits = assay: Antispastic activity in the colon of rabbits stimulated with CCK-8; assay type: in vivo, rabbit; parameters: Antispastic activity in colon, EXPERIMENT 1 / Antispastic activity in colon, EXPERIMENT 2: unit not given here; details: CCK 100 ng/kg
Experimental: The abdomen of anaesthetised rabbit is cut open to display the tranverse colon. A small balloon full of water is inserted at an established point and connected to a pressure transducer by means of a polyethylene cannula filled with H2 O.
The optimum sensitivity being fixed in relation to the physiological contractions, the products were administered through the femeral vein. Contractions were induced by the administration of 100 ng/kg of CCK.

[1] = test system: pancreatitis in mice induced experimentally by cerulein; assay: Pancreatitis induced by cerulein in mice; assay type: in vivo; details: for ED50: Mus musculus, ip, cerulein, mice
Experimental: Adult male mice received six injections of cerulein (Takus) (50 mcg/kg) each hour for six hours.
The compound was administered 30 minutes before each administration of cerulein. Nine hours after the beginning of the treatment, the blood was taken from the rectro-orbitory plexus after anaesthesia with ether, the animals were killed and the pancreas removed and weighed.

[2] = test system: pancreatitis in rats induced experimentally by taurocholate; assay: Pancreatitis induced by sodium taurocolate in rats; assay type: in vivo; details: for ED50: Rattus norvegicus, ip, taurocholate, rats
Experimental: The products under examination were administered intraperitoneally (i.p.) 30 minutes before the operation and 3 hours after the operation. Six hours after the laparatomy the blood was removed from the retro-orbitory plexus after anaesthesia with ether, the animals were killed and the pancreas was removed and weighed. The activity of the serum amylase was determined by the method described above.

Compound: CCCCCN(CCOC)C(=O)C(CCC(=O)O)NC(=O)c1ccc(Cl)c(Cl)c1 (stereo not shown) [Compound 5]
- IC50 (guinea-pig gallbladder): 0.8 µg/mL (≈ 1.79 µM)
- ED50 (guinea pig gall bladders): 0.68 mg/kg
- ED50 (digestive tract): 20.8 mg/kg
- LD50 (in vivo): 485 mg/kg
- selectivity ratio (in vivo): 713

Compound: CCCCCN(CCOCC)C(=O)C(CCC(=O)O)NC(=O)c1ccc(Cl)cc1 (stereo not shown) [Compound 12]
- IC50 (guinea-pig gallbladder): 2.9 µg/mL (≈ 6.79 µM)
- ED50 (guinea pig gall bladders): 4.44 mg/kg

Compound: COCCCN(CCC(C)C)C(=O)C(CCC(=O)O)NC(=O)c1ccc(Cl)c(Cl)c1 (stereo not shown) [Compound 19]
- IC50 (guinea-pig gallbladder): 0.6 µg/mL (≈ 1.3 µM)
- ED50 (guinea pig gall bladders): 0.74 mg/kg
- ED50 (digestive tract): 18.5 mg/kg
- LD50 (in vivo): 297 mg/kg
- selectivity ratio (in vivo): 401

Compound: CCCCCCN(CCCOC)C(=O)C(CCC(=O)O)NC(=O)c1ccc(Cl)c(Cl)c1 (stereo not shown) [Compound 17]
- IC50 (guinea-pig gallbladder): 1.6 µg/mL (≈ 3.37 µM)
- ED50 (guinea pig gall bladders): 3.25 mg/kg

Compound: CCCCCN(CCCOC)C(=O)C(CCC(=O)O)NC(=O)c1ccc(Cl)cc1 (stereo not shown) [Compound 11]
- IC50 (guinea-pig gallbladder): 2.6 µg/mL (≈ 6.09 µM)
- ED50 (guinea pig gall bladders): 3.25 mg/kg

Compound: CCCCCN(CCCOC)C(=O)C(CCC(=O)O)NC(=O)c1ccc(C)cc1 (stereo not shown) [Compound 9]
- IC50 (guinea-pig gallbladder): 4 µg/mL (≈ 9.84 µM)
- ED50 (guinea pig gall bladders): 3.85 mg/kg

Compound: CCCCCN(CCCO)C(=O)C(CCC(=O)O)NC(=O)c1ccc(Cl)c(Cl)c1 (stereo not shown) [Compound 6]
- IC50 (guinea-pig gallbladder): 0.3 µg/mL (≈ 0.671 µM)
- ED50 (guinea pig gall bladders): 8.4 mg/kg

Compound: CCCCCN(CCOCC)C(=O)C(CCC(=O)O)NC(=O)c1ccc(C)c(C)c1 (stereo not shown) [Compound 8]
- IC50 (guinea-pig gallbladder): 1.1 µg/mL (≈ 2.62 µM)
- ED50 (guinea pig gall bladders): 2.02 mg/kg

Compound: COCCCN(CCCC(C)(C)C)C(=O)C(CCC(=O)O)NC(=O)c1ccc(Cl)c(Cl)c1 (stereo not shown) [Compound 18]
- IC50 (guinea-pig gallbladder): 4.8 µg/mL (≈ 9.81 µM)
- ED50 (guinea pig gall bladders): 6.79 mg/kg

Compound: CCCCCN(CCCOC)C(=O)C(CCC(=O)O)NC(=O)c1cccc(Cl)c1 (stereo not shown) [Compound 13]
- IC50 (guinea-pig gallbladder): 8.9 µg/mL (≈ 20.8 µM)
- ED50 (guinea pig gall bladders): 6.7 mg/kg

Compound: CCCCCN(CCCOC(C)C)C(=O)C(CCC(=O)O)NC(=O)c1ccc(Cl)c(Cl)c1 (stereo not shown) [Compound 4]
- IC50 (guinea-pig gallbladder): 3 µg/mL (≈ 6.13 µM)
- ED50 (guinea pig gall bladders): 5.08 mg/kg

Compound: CCCCCN(CCCOC)C(=O)C(CC(=O)O)NC(=O)c1ccc(Cl)c(Cl)c1 (stereo not shown) [Compound 20]
- IC50 (guinea-pig gallbladder): 0.9 µg/mL (≈ 2.01 µM)
- ED50 (guinea pig gall bladders): 0.84 mg/kg
- ED50 (digestive tract): 27.9 mg/kg
- LD50 (in vivo): 362 mg/kg
- selectivity ratio (in vivo): 431

Compound: CCCCCN(CCCOC)C(=O)C(CCC(=O)O)NC(=O)c1ccc(F)c(F)c1 (stereo not shown) [Compound 14]
- IC50 (guinea-pig gallbladder): 0.8 µg/mL (≈ 1.87 µM)
- ED50 (guinea pig gall bladders): 1.1 mg/kg
- LD50 (in vivo): 425 mg/kg
- selectivity ratio (in vivo): 386

Compound: CCCCCN(CCCOCC)C(=O)C(CCC(=O)O)NC(=O)c1ccc(Cl)c(Cl)c1 (stereo not shown) [Compound 3]
- IC50 (guinea-pig gallbladder): 0.6 µg/mL (≈ 1.26 µM)
- ED50 (guinea pig gall bladders): 0.75 mg/kg
- ED50 (digestive tract): 25 mg/kg
- LD50 (in vivo): 298 mg/kg
- selectivity ratio (in vivo): 397

Compound: CCCCN(CCCOC)C(=O)C(CCC(=O)O)NC(=O)c1ccc(Cl)c(Cl)c1 (stereo not shown) [Compound 16]
- IC50 (guinea-pig gallbladder): 1.5 µg/mL (≈ 3.35 µM)
- ED50 (guinea pig gall bladders): 2.08 mg/kg

Compound: COCCCN(CCCC(C)C)C(=O)C(CCC(=O)O)NC(=O)c1ccc(Cl)c(Cl)c1 (stereo not shown) [Compound 15]
- IC50 (guinea-pig gallbladder): 0.7 µg/mL (≈ 1.47 µM)
- ED50 (guinea pig gall bladders): 0.84 mg/kg
- ED50 (digestive tract): 44.2 mg/kg
- LD50 (in vivo): 288 mg/kg
- selectivity ratio (in vivo): 343

Compound: CCCCCN(CCCOC)C(=O)C(CCC(=O)O)NC(=O)c1ccc(C)c(C)c1 (stereo not shown) [Compound 7]
- IC50 (guinea-pig gallbladder): 0.9 µg/mL (≈ 2.14 µM)
- ED50 (guinea pig gall bladders): 0.65 mg/kg
- ED50 (digestive tract): 33.9 mg/kg
- LD50 (in vivo): 440 mg/kg
- selectivity ratio (in vivo): 677

Compound: CCCN(CCC)C(=O)C(CCC(=O)O)NC(=O)c1ccccc1 (stereo not shown) [Proglumide, reference compound]
- IC50 (guinea-pig gallbladder): 340 µg/mL (≈ 1020 µM)
- activity less than that of the most active compound in the invention (guinea-pig gallbladder; in vitro gallbladder): about 3000 times less
- ED50 (guinea pig gall bladders): 70.5 mg/kg
- Antispastic activity in colon, EXPERIMENT 1 (colon of rabbits; 25 mg/kg i.v.): -33.7
- Antispastic activity in colon, EXPERIMENT 2 (colon of rabbits; 25 mg/kg i.v.): 0
- Antispastic activity in colon, EXPERIMENT 1 (colon of rabbits; 50 mg/kg i.v.): -38.1
- Antispastic activity in colon, EXPERIMENT 2 (colon of rabbits; 50 mg/kg i.v.): -16.1
- Antispastic activity in colon, EXPERIMENT 1 (colon of rabbits; 100 mg/kg i.v.): -64.4
- Antispastic activity in colon, EXPERIMENT 2 (colon of rabbits; 100 mg/kg i.v.): -43.1
- ED50 (colon of rabbits; Oryctolagus cuniculus, iv): 92.6 mg/kg
- AMYLASE IN THE SERUM ([1]; 200 mg/kg ip + cerulein): 48.2 U/ml
- INHIBITION OF WEIGHT INCREASE ([1]; 200 mg/kg ip + cerulein): 53.4%
- INHIBITION OF WEIGHT INCREASE (pancreas) ([1]; 200 mg/kg ip + cerulein): 38.1%
- RATIO WEIGHT OF PANCREAS / ANIMAL WEIGHT ([1]; 200 mg/kg ip + cerulein): 0.47%
- AMYLASE IN THE SERUM ([1]; 400 mg/kg ip + cerulein): 26.2 U/ml
- INHIBITION OF WEIGHT INCREASE ([1]; 400 mg/kg ip + cerulein): 80.9%
- INHIBITION OF WEIGHT INCREASE (pancreas) ([1]; 400 mg/kg ip + cerulein): 85.7%
- RATIO WEIGHT OF PANCREAS / ANIMAL WEIGHT ([1]; 400 mg/kg ip + cerulein): 0.37%
- ED50 ([1]; read-out: ED50 (inhibition of weight increase)): 226 mg/kg
- ED50 ([1]; read-out: ED50, inhibition of weight increase of the pancreas): 241 mg/kg
- activity of proglumide in cerulein pancreatitis ([1]; in words): also active but at considerably higher doses
- AMYLASE IN THE SERUM ([2]; 200 mg/kg i.p. + taurocholate): 14.5 U/ml
- INHIBITION OF AMYLASE INCREASE ([2]; 200 mg/kg i.p. + taurocholate): 45.5%
- INHIBITION OF WEIGHT INCREASE ([2]; 200 mg/kg i.p. + taurocholate): 21.4%
- RATIO WEIGHT OF PANCREAS / ANIMAL WEIGHT ([2]; 200 mg/kg i.p. + taurocholate): 0.49%
- AMYLASE IN THE SERUM ([2]; 400 mg/kg i.p. + taurocholate): 9.1 U/ml
- INHIBITION OF AMYLASE INCREASE ([2]; 400 mg/kg i.p. + taurocholate): 89.4%
- INHIBITION OF WEIGHT INCREASE ([2]; 400 mg/kg i.p. + taurocholate): 42.8%
- RATIO WEIGHT OF PANCREAS / ANIMAL WEIGHT ([2]; 400 mg/kg i.p. + taurocholate): 0.46%
- ED50 ([2]; read-out: ED50, inhibition of amylase increase): 222 mg/kg
- ED50 ([2]; read-out: ED50, inhibition of weight increase): 467 mg/kg
- LD50 (in vivo): 2400 mg/kg
- selectivity ratio (in vivo): 34

Compound: CCCCCN(CCCOC)C(=O)C(CCC(=O)O)NC(=O)c1cccc(C)c1 (stereo not shown) [Compound 10]
- IC50 (guinea-pig gallbladder): 4.1 µg/mL (≈ 10.1 µM)
- ED50 (guinea pig gall bladders): 3.66 mg/kg

Compound: CCCCCN(CCCOC)C(=O)C(CC(=O)O)NC(=O)c1ccc(C)c(C)c1 (stereo not shown) [Compound 21]
- IC50 (guinea-pig gallbladder): 4.7 µg/mL (≈ 11.6 µM)
- ED50 (guinea pig gall bladders): 3.69 mg/kg
